How the values were obtained:
Huh-7 cell lines = experiment: Liver cancer model, Huh-7 cell lines subcutaneously transplanted into nude mice; type: in vivo; conditions: 50 mg/kg once a day
Experimental: (§1) In addition, a liver cancer model was established by subcutaneously transplanting Huh-7 cell lines into nude mice. After establishing the liver cancer model, the mice were divided into two groups (group 1: vehicle administration group, group 2: 50 mg/kg Example 27 compound administration group). The drug was administered once a day for 12 times. To evaluate therapeutic efficacy, tumor volume was measured before drug administration and on days 4, 7, 10, 13, and 15 after drug administration. Tumor volume (mm^3) was calculated as follows (tumor volume (mm^3)=(A×B^2)/2, where A=tumor long axis, B=tumor short axis). Body weight was measured before administration and on days 4, 7, 10, 13, and 15 after drug administration during the drug administration period. Tumor was excised on day 15 after drug treatment and body weight was measured.

HDAC3 = HDAC3 (Homo sapiens, UniProt O15379); experiment: Selective inhibitory effect, HDAC Fluorogenic assay kit, HDAC3; conditions: read-out: HDAC3 enzyme activity (%)
Sequence of HDAC3 (O15379 whole entry): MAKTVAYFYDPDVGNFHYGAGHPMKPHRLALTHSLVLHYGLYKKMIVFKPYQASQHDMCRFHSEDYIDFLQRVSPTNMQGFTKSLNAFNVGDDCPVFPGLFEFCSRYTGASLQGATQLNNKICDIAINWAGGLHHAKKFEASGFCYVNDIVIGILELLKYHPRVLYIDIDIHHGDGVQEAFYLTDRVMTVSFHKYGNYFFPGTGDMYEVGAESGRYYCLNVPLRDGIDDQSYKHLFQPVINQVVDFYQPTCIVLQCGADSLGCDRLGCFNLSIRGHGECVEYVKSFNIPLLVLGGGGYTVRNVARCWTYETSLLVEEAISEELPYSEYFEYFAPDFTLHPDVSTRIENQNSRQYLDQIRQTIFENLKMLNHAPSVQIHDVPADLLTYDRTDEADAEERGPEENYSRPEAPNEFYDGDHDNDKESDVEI
Sequence of HDAC3 (Q9Y618 395-489 partner limits assumed): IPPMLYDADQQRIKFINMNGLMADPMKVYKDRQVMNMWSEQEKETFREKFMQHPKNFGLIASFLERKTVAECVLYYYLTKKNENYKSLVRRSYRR
Experimental: (§2) For analysis, HDAC substrate 3 was diluted in buffer to a concentration of 200 μM and used in HDAC 1, 2, 3, 6, and 10 assays, HDAC substrate 2A was diluted in buffer to a concentration of 200 μM and used in HDAC 4, 7, 9, and 11 assays, HDAC substrate 2A was diluted in buffer to a concentration of 20 μM and used in HDAC 8 assays. For the HDAC 11 assay, a dedicated buffer included in the kit was used separately, and the same buffer was used for the remaining assays. The compound of the Example was diluted to 1 mM (1% DMSO concentration) using DMSO to obtain a final concentration of 10 μM, and prepared by diluting 1/10 with assay buffer. In a 96-well black round-bottom plate, 5 μL of the diluted compound of the Example, 5 μL of the diluted HDAC substrate, 5 μL of BSA (1 mg/ml), 5 μL of the HDAC enzyme diluted to the appropriate concentration, and 30 μL of assay buffer were added, and the enzyme reaction was performed at 37° C. for 30 minutes. […] Afterwards, 50 μL of 2×HDAC developer was added to each well. After reacting for 15 minutes at room temperature, the fluorescence values at excitation wavelengths of 350-380 nm and emission wavelengths of 440-460 nm were measured using a microplate reader (Synergy Neo).

PC-3 cell lines = experiment: Prostate cancer model, PC-3 cell lines subcutaneously transplanted into nude mice; type: in vivo; conditions: 50 mg/kg orally once a day
Experimental: A prostate cancer model was established by subcutaneously transplanting PC-3 cell lines into nude mice, and the mice were divided into two groups (group 1: vehicle administration group (10% DSMO, 30% PEG400, 60% DW), group 2: 50 mg/kg Example 27 compound administration group). The drug was administered orally once a day for 12 times. To evaluate the therapeutic efficacy, tumors were […] before drug administration and on days 3, 6, 8, 10, 12, and 14 after drug administration, and tumor volumes were measured. Tumor volume (mm^3) was calculated as follows (tumor volume (mm^3)=(A×B^2)/2, where A=tumor long axis, B=tumor short axis), and the results are shown in FIG. 2.
Meanwhile, on day 12 of drug administration, the tumor was removed and its weight was measured, the results are shown in FIG. 3, and a photograph of the removed tumor was taken and shown in FIG. 4.

[1] = Body weight of mice during drug administration, liver cancer model; type: in vivo, nude mice; conditions: 50 mg/kg once a day; drug administration period; FIG. 7D
Experimental: as §1

HDAC8 [2] = target: T1, HDAC8 (Homo sapiens, UniProt Q9BY41); experiment: Selective inhibitory effect, HDAC Fluorogenic assay kit, HDAC8; type: biochemical; conditions: versus HDAC1, 2, 3, 4, 6, 7, 9, 10, 11; 10 μM
T1 construct: purchased BPS bioscience
T1 sequence (Q9BY41 1-377): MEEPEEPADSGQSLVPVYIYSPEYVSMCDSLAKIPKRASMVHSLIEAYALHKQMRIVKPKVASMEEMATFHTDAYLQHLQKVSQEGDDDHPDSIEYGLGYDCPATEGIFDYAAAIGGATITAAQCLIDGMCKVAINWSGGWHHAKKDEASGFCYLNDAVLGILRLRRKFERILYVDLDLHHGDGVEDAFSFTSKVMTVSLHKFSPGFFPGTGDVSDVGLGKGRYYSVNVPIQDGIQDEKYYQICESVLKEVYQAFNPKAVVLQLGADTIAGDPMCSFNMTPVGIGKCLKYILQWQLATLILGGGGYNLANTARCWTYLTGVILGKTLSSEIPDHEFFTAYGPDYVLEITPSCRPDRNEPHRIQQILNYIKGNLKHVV
Experimental: as §2

HDAC2 = HDAC2 (Homo sapiens, UniProt Q92769); experiment: Selective inhibitory effect, HDAC Fluorogenic assay kit, HDAC2; conditions: read-out: HDAC2 enzyme activity (%)
Sequence of HDAC2 (Q92769 whole entry): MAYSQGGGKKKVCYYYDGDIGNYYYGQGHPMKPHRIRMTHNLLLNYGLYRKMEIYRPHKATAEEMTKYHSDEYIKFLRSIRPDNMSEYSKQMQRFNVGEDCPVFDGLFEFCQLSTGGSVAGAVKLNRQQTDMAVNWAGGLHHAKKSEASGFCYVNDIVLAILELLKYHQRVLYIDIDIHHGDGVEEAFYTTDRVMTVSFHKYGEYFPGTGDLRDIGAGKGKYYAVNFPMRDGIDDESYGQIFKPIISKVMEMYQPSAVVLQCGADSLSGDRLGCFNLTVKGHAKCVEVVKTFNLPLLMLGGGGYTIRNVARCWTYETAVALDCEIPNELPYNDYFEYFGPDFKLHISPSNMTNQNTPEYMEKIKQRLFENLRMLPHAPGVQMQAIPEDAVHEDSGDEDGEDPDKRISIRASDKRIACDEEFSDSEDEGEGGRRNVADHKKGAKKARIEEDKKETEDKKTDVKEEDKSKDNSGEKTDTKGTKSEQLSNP
Experimental: as §2

[3] = tested on: PC-3 prostate cancer cells; experiment: Prostate cancer cell growth inhibition, CCK-8 assay; type: cell-based, human; conditions: various concentrations; 24 hours and 48 hours; FIG. 1
Experimental: PC-3, a human-derived prostate cancer cell line, was cultured with RPMI1640 (10% fetal bovine serum, 1% Penicillin Streptomycin) culture medium at 37° C., 5% CO2 condition. All cells in the experiment were subcultured when they reached a confluency of approximately 80% to 90%, and only cells that had not passed 20 passages were used.
After culturing, 10 L CCK-8 reagent was added and the absorbance was measured after 1 hour. The absorbance was measured at 450 nm using a microplate reader [BMG Labtech (Offenburg, Germany)].

HDAC8 [4] = target: T1, HDAC8; experiment: HDAC8 inhibitory activity analysis (in vitro), RFU analysis, HDAC Fluorogenic assay kit; type: biochemical; conditions: 10 μM; compared with TSA or SAHA
Experimental: The compound of the Example was diluted to 1 mM (1% DMSO concentration) using DMSO to obtain a final concentration of 10 μM, and prepared by diluting 1/10 with assay buffer. In a 96-well black round-bottom plate, 5 μL of the diluted compound of the Example, 5 μL of the diluted HDAC substrate 2A, 5 μL of BSA (1 mg/mL), 5 µL of the HDAC8 enzyme diluted to an appropriate concentration, and 30 μL of assay buffer were added, and the enzyme reaction was performed at 37° C. for 30 minutes. […] Afterwards, 50 μL of 2×HDAC developer was added to each well. After reacting for 15 minutes at room temperature, the fluorescence values at excitation wavelengths of 350-380 nm and emission wavelengths of 440-460 nm were measured using a microplate reader (Synergy Neo).

## Cc1cc2nc(C(=O)NCCc3c[nH]c4ccc(O)cc34)c(=O)n(C[C@H](O)[C@H](O)[C@H](O)CO)c2cc1C [Example 27, N-(2-(5-hydroxy-1H-indol-3-yl)ethyl)-6,7-dimethyl-3-oxo-4-((2S,3S,4R)-2,3,4,5-tetrahydroxypentyl)-3,4-dihydroquinoxaline-2-carboxamide]
Huh-7 cell lines; 12 times, up to day 15, p<0.005 vs vehicle, FIG. 7A
  tumor volume (in words): tumor growth inhibitory effect
Huh-7 cell lines; tumor removed on day 15, p<0.0005 vs vehicle, FIGS. 7B and 7C
  tumor weight (in words): tumor weight of the vehicle group was significantly higher than that of the Example 27 compound administration group
HDAC3
  remaining activity at 10 µM: 73.1%
PC-3 cell lines; 12 times, up to day 14, p<0.05 vs vehicle, FIG. 2
  tumor volume (in words): significantly reduced tumor volume growth rate compared to group 1
PC-3 cell lines; tumor removed on day 12, p<0.0005 vs vehicle, FIG. 3
  tumor weight (in words): vehicle administration group (group 1) had a significantly higher tumor weight than the Example 27 compound administration group
[1]
  body weight (in words): No rapid weight loss was observed
HDAC8 [2]
  selective inhibitory effect on HDAC8 (in words): selective and excellent inhibitory activity only against HDAC8
HDAC2
  remaining activity at 10 µM: 91.2%
[3]
  PC-3 cancer cell viability inhibition rate compared with PCI-34051: superior to that of PCI-34051
  PC-3 cell viability (in words): effectively reduced the viability of prostate cancer cells in a concentration- and time-dependent manner
HDAC8 [4]
  inhibitory activity against HDAC8 (in words): inhibitory activity similar to TSA or SAHA

Reference: patent publication US20250214947A1, “3,4-DIHYDROQUINOXALINE-2-CARBOXIMIDE DERIVATIVE COMPOUND AND PHARMACEUTICAL COMPOSITION COMPRISING SAME FOR PREVENTING OR TREATING CANCER DISEASE” (Cureverse Incorporated, priority 2022, published 2025)
